# Results: patent US11452731B2, “Method of treating and preventing loss of cognition” (ENDORECHERCHE, INC., priority 2009, dated 2022)
# Marks after values point to notes of the source that are not given here.
# Assays:
# [1] = Uterine and vaginal weight in ovariectomized BALB/c mice treated orally for 9 days with or without estrone (Example 3); format: in vivo; conditions: for inhibition of estrone-stimulated uterine weight / inhibition of vaginal weight (estrone-stimulated): OVX mice + estrone; for stimulation of uterine weight (estrogenic effect) / stimulation of vaginal weight (estrogenic effect): OVX mice, absence of estrone, 10 μg daily (no-effect statements: 1 μg and 10 μg)
# Method: Female BALB/c mice (BALB/cAnNCrlBR) weighing 18-20 g were obtained from Charles-River, Inc. (St-Constant, Quebec, Canada) and housed 5 per cage in a temperature (23±1° C.)- and light (12 h light/day, lights on at 7:15)-controlled environment. The mice were fed rodent chow and tap water ad libitum. The animals were ovariectomized (OVX) under Isoflurane anesthesia via bilateral flank incisions and randomly assigned to groups of 10 animals. Ten mice were kept intact as controls.
# In the second experiment (Table 6), TSE 424 was administered orally by gavage once daily at doses of 1, 3, 10 or 30 μg/animal for 9 days, starting 2 days after ovariectomy. In both experiments, to evaluate the antiestrogenic activity, treatment with estrone (E1, […], s.c. injection, twice daily) was started 5 days post-ovariectomy and was administered for a 6 day-period. Compounds were dissolved in ethanol (4% final concentration) and administered in 0.4% methylcellulose. Mice in the intact and OVX control groups received the vehicle alone (4% ETOH-0.4% methylcellulose) during the 9-day period. The animals were killed by exsanguination at the abdominal aorta on the 11th morning following ovariectomy. The uteri and vagina were rapidly dissected, weighed, and kept in 10% buffered formalin for further histologic examination.
# human Ishikawa cells = assay: Alkaline phosphatase activity in human endometrial adenocarcinoma Ishikawa cells (Example 6); conditions: for IC50 / Emax: Homo sapiens, Ishikawa, 120 h; for IC50: read-out: Inhibition of 1 nM E2-induced stimulation of alkaline phosphatase IC50; for Emax: read-out: Maximal stimulation of alkaline phosphatase % of 1 nM E2 stimulation; for Maximal inhibition of 1 nM E2-induced stimulation of alkaline phosphatase: Ishikawa cells, 5-day incubation
# [2] = 3-month treatment of ovariectomized rats: lumbar spine BMD, total body fat, serum cholesterol, ALP (Example 4, experiment 1); format: in vivo, rat; conditions: OVX rats, 3 months
# Method: Ten to twelve week-old female Sprague-Dawley rats (Crl:CD(SD)Br) (Charles River Laboratory, St-Constant, Canada) weighing approximately 220-270 g at start of treatment were used. The animals were acclimatized to the environmental conditions (temperature: 22±3° C.; humidity: 50±20%; 12-h light-12-h dark cycles, lights on at 07:15 h) for at least 1 week before starting the experiments. The animals were housed individually and were allowed free access to tap water and a pelleted certified rodent feed (Lab Diet 5002, Ralston Purina, St-Louis, Mo.). Experiments were conducted in an animal facility approved by the Canadian Council on Animal Care (CCAC) and the Association for Assessment and Accreditation of Laboratory Animal Care (AAALAC) in accordance with the CCAC Guide for Care and Use of Experimental Animals.
# On day 1 of the study, the animals of the appropriate groups were bilaterally ovariectomized (OVX) under isoflurane anesthesia. The DHEA was applied topically on the dorsal skin as a solution in 50% ethanol-50% propylene glycol while the other tested compounds were administered as suspension in 0.4% methylcellulose by oral gavage. Treatments were initiated on day 2 of the study and were performed once daily during 3 months.
# After 3 months (experiment 1) or 26 weeks (experiment 2) of treatment, individual rats under Isoflurane anesthesia had their whole body skeleton and lumbar spine scanned using dual energy x-ray absorptiometry (DEXA; QDR 4500A, Hologic, Waltham, Mass.) and a Regional High Resolution Scan software. The bone mineral density (BMD) of the lumbar spine (vertebrae L2 to L4) and the total body composition (fat percentage) were determined.
# After 3 months (experiment 1) or 26 weeks (experiment 2) of treatment, blood samples were collected at the jugular vein from overnight fasted animals (under Isoflurane anesthesia). Samples were processed for serum preparation and frozen at −80° C. until assay. Serum cholesterol levels and alkaline phospatase activity (ALP) were determined using the Boehringer Mannheim Diagnostic Hitachi 911 Analyzer (Boehringer Mannheim Diagnostic Laboratory Systems).
# [3] = test system: ZR-75-1 human breast cancer xenografts; assay: Growth and response of human ZR-75-1 breast tumors in OVX nude mice, 7 antiestrogens for 161 days with or without estrone (Example 8); format: in vivo; conditions: for increase of average tumor size over baseline (agonistic effect) / tumors in the progression category, % / tumors in the progression category, number of total: absence of estrone, 200 μg daily; for increase of average tumor size over baseline (agonistic effect) / tumors in the progression category, % / tumors in the progression category, number of total / progressing tumors, % of tumors / progressing tumors, number of total: 161 days; for average tumor size above pretreatment values: estrone-stimulated, 50 μg oral daily, 23 weeks; for progressing tumors, % of tumors / progressing tumors, number of total: estrone-supplemented, 50 μg daily
# Method: ZR-75-1 human breast cancer cells were obtained from the American Type Culture Collection (Rockville, Md.) and cultured in phenol red-free RPMI-1640 medium. […] (Saint-Constant, Québec, Canada). The mice (5 per cage) were housed in vinyl cages equipped with air filter lids, which were kept in laminar airflow hoods and maintained under pathogen-limiting conditions. The photoperiod was 12 hours of light and 12 hours of darkness (lights on at 07:15). Cages, bedding and food (Agway Pro-Lab R-M-H Diet #4018) were autoclaved before use. Water was autoclaved and provided ad libitum. Bilateral ovariectomy was performed under isoflurane-induced anesthesia. […] Randomization and treatments were started one week later. […] The estrone implants were then removed from the animals in the ovariectomized control group (OVX) and in groups that were to receive the antiestrogen alone. […] Tamoxifen was purchased from […]) while toremifene citrate was purchased from Orion (Espoo, Finland). […] The antiestrogen suspensions at the appropriate concentration were prepared each month, stored at 4° C. and used under constant agitation. Powder stock were hermetically stored at 4° C. […] Two perpendicular diameters were recorded and tumor area (mm2) was calculated using the formula: […] Tumor response was assessed at the end of the study or at death of each animal, if it occurred during the course of the experiment. In this case, only data of mice that survived for at least half of the study ([…]) were used in the tumor response analysis.
# [4] = Endometrial epithelium thickness in OVX nude mice after 161 days of antiestrogen (Example 8); format: in vivo; conditions: for inhibition of the stimulatory effect of estrone on epithelial height: 50 μg daily oral, estrone stimulation; for height of uterine epithelial cells, % of the OVX control group value: 200 μg daily, absence of estrone
# From the text: The 17 groups included two control groups (OVX and OVX+Estrone), seven groups supplemented with an estrone implant and treated with an antiestrogen and eight other groups that received an antiestrogen alone. The estrone implants were then removed from the animals in the ovariectomized control group (OVX) and in groups that were to receive the antiestrogen alone. […] Tamoxifen was purchased from […]) while toremifene citrate was purchased from Orion (Espoo, Finland). […] The antiestrogen suspensions at the appropriate concentration were prepared each month, stored at 4° C. and used under constant agitation. Powder stock were hermetically stored at 4° C. […] After 161 days of treatment, the remaining animals were anesthetized with isoflurane and killed by exsanguination. […] The uteri were prepared to evaluate endometrial thickness by image analysis performed with Image Pro-Plus (Media Cybernetics, Maryland, USA). […] Hematoxylin- and eosin-stained sections of mice uteri were analyzed. […] Mean epithelial cell height was measured in all animals of each group.
# [5] = E2 1 mg/kg, EM-652.HCl 2.5 mg/kg, DHEA 80 mg/kg
# [6] = OVX + E1, antiestrogen 50 μg daily
# [7] = OVX without E1, antiestrogen 200 μg daily
SMILES,IC50 (human Ishikawa cells),Emax (human Ishikawa cells),Maximal inhibition of 1 nM E2-induced stimulation of alkaline phosphatase (human Ishikawa cells),increase of average tumor size over baseline (agonistic effect) [3],average tumor size above pretreatment values [3],"progressing tumors, % of tumors [3]","progressing tumors, number of total [3]",inhibition of the stimulatory effect of estrone on epithelial height [4],"height of uterine epithelial cells, % of the OVX control group value [4]","ENDOMETRIAL EPITHELIUM THICKNESS (μm) ± SEM [4, 6]","ENDOMETRIAL EPITHELIUM THICKNESS (μm) ± SEM [4, 7]",further results
"Oc1ccc2c(c1)CC[C@@H](c1ccccc1)[C@H]2c1ccc(OCCN2CCCC2)cc1 (single isomer, unassigned) [inactive enantiomer of lasofoxifene]",–,–,–,–,–,–,–,–,–,–,–,"inhibition of estrone-stimulated uterine weight ([1]; any dose used (1, 3, 10 μg)): no inhibitory effect; inhibition of vaginal weight (estrone-stimulated) ([1]; any dose used (1, 3, 10 μg)): no inhibitory effect; stimulation of uterine weight (estrogenic effect) [1]: no stimulatory effect; stimulation of vaginal weight (estrogenic effect) [1]: no stimulatory effect"
"CN(C)CCOc1ccc(/C(=C(/CCCl)c2ccccc2)c2ccc(O)cc2)cc1 [OH-Toremifene, (Z)-(2)-2-[4-(4-chloro-1-(4-hydroxyphenyl)-2-phenyl-1-butenyl)phenoxy]-N,N-dimethylethanamine]",72.1 ± 7.6 nM,29.6 ± 2.1%,75.73 ± 3.52 (3),–,–,–,–,–,–,–,–,–
"C[C@]12CC[C@@H]3c4ccc(O)cc4CC[C@H]3[C@@H]1CC[C@@H]2O [E2, 17β-estradiol]",–,–,–,–,–,–,–,–,–,–,–,"ALP (serum alkaline phosphatase activity) [2]: 59 ± 4 IU/L; CHOLESTEROL (serum) [2]: 1.37 ± 0.18 mmol/L; TOTAL FAT [2]: 19.5 ± 2.5 %; LUMBAR SPINE BMD [2, 5]: 0.2457 ± 0.0049 g/cm^2; LUMBAR SPINE Prevention of Bone Loss [2, 5]: 98%"
"CC/C(=C(\c1ccc(I)cc1)c1ccc(OCCN2CCCC2)cc1)c1ccccc1 [Idoxifene, (E)-1-[2-[4-[1-(4-Iodophenyl)-2-phenyl-1-butenyl]phenoxy]ethyl]pyrrolidine]",–,–,–,125%,86%,71%,20 of 28,50%,176%,"29.35^b,d ± 0.05 μm","32.14^b,d ± 0.05 μm","tumors in the progression category, % [3]: 33%; tumors in the progression category, number of total [3]: 8 of 24"
"CC/C(=C(/c1ccc(OCCN(C)C)cc1)c1cccc(O)c1)c1ccccc1 [Droloxifene, (E)-3-[1-[4-[2-(Dimethylamino)ethoxy]phenyl]-2-phenyl-1-butenyl] phenol]",–,–,–,did not significantly change,478%,100%,23 of 23,17%,101%,"36.71^b,d ± 0.12 μm",18.50 ± 0.07 μm,–
"COc1ccc(-c2sc3cc(O)ccc3c2Oc2ccc(OCCN3CCCCC3)cc2)cc1.Cl [LY 353381, 6-hydroxy-3-[4-[2-(1-piperidinyl)ethoxy]phenoxyl]-2-(4-methoxyphenyl) benzo [b] thiophene hydrochloride]",1.87 ± 0.07 nM,15.5 ± 0.25%,90.25 ± 0.127 (2),–,–,–,–,–,–,–,–,–
"CN(C)CCOc1ccc(/C(=C(/CCCl)c2ccccc2)c2ccccc2)cc1 [Toremifene, (Z)-2-[4-(4-Chloro-1,2-diphenyl-1-butenyl)phenoxy]-N,N-dimethylethanamine]",–,–,–,86%,230%,89%,25 of 28,41%,135%,"31.47^b,d ± 0.04 μm","24.75^b,c ± 0.04 μm","tumors in the progression category, % [3]: 21%; tumors in the progression category, number of total [3]: 6 of 28"
"Cl.O=C(c1ccc(OCCN2CCCCC2)cc1)c1c(-c2ccc(O)cc2)sc2cc(O)ccc12 [Raloxifene, [2-(4-hydroxyphenyl)-6-hydroxybenzo[b]thien-3-yl] [4-[2-(1-piperidinyl)ethoxy]phenyl]-methanone hydrochloride]",3.39 ± 0.9 nM,12.8 ± 1.7%,94.31 ± 1.74 (5),did not significantly change,191%,81%,21 of 26,26%,122%,"34.72^b,d ± 0.06 μm",22.33^a ± 0.05 μm,"inhibition of estrone-stimulated uterine weight ([1]; oral 9 days, 1 μg daily): 6%; inhibition of estrone-stimulated uterine weight ([1]; oral 9 days, 3 μg daily): 14%; inhibition of estrone-stimulated uterine weight ([1]; oral 9 days, 10 μg daily): 43%; inhibition of vaginal weight (estrone-stimulated) ([1]; oral 9 days, 10 μg daily): 24%; stimulation of uterine weight (estrogenic effect) [1]: 85%; stimulation of vaginal weight (estrogenic effect) [1]: 56%"
